Experimental data taken from ChEMBL document CHEMBL5291721, “A preclinical secondary pharmacology resource illuminates target-adverse drug reaction associations of marketed drugs” (Nat Commun, 2023).

Tests used:
[1] = biological target: T1, Neuropeptide Y receptor type 1 (Homo sapiens, UniProt P25929)
T1 sequence (P25929 whole entry): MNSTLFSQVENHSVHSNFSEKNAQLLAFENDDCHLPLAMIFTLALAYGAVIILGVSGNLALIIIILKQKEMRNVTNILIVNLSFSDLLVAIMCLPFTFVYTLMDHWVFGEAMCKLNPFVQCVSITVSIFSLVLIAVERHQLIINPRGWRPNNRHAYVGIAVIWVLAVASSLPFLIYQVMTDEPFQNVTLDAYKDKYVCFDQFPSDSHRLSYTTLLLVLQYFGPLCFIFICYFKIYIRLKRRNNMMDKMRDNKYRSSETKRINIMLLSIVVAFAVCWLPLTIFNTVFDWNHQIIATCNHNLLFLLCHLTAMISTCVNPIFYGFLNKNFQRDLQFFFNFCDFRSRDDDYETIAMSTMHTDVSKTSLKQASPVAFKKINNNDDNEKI

[2] = biological target: T2, Gastrin/cholecystokinin type B receptor (Homo sapiens, UniProt P32239)
T2 sequence (P32239 whole entry): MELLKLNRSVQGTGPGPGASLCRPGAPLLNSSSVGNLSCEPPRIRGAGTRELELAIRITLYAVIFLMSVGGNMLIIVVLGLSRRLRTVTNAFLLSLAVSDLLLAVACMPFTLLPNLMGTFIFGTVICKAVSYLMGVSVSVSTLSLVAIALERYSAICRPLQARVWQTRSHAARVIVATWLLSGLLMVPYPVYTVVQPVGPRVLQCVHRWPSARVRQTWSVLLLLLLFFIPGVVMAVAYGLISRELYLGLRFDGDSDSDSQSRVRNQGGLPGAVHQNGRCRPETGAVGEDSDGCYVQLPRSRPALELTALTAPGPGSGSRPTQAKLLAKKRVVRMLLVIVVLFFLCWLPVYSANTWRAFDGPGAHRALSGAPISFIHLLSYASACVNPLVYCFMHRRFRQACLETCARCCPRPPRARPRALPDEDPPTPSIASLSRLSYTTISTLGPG

[3] = biological target: 5-hydroxytryptamine receptor 2B (Homo sapiens, UniProt P41595); format: functional, cell-based
[4] = biological target: Delta-type opioid receptor (Homo sapiens, UniProt P41143)
[5] = biological target: 3',5'-cyclic-AMP phosphodiesterase 4D (Homo sapiens, UniProt Q08499); format: functional
Adenosine receptor A2a = Adenosine receptor A2a (Homo sapiens, UniProt P29274)
Mu-type opioid receptor = Mu-type opioid receptor (Homo sapiens, UniProt P35372)
[6] = biological target: T3, 5-hydroxytryptamine receptor 1A (Homo sapiens, UniProt P08908); format: functional, cell-based
T3 sequence (P08908 whole entry): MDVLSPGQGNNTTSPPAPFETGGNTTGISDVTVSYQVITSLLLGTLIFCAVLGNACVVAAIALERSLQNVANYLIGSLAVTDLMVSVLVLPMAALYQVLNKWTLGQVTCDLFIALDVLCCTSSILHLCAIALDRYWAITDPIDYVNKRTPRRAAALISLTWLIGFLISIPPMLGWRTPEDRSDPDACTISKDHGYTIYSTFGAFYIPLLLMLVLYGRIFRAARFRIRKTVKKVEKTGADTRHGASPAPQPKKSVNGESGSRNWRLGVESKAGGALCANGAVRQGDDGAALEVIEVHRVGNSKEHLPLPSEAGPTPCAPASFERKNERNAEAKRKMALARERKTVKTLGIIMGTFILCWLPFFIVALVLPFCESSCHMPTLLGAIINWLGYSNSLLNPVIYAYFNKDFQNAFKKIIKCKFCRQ

[7] = biological target: T4, Alpha-1A adrenergic receptor (Homo sapiens, UniProt P35348); format: functional, cell-based
T4 sequence (P35348 whole entry): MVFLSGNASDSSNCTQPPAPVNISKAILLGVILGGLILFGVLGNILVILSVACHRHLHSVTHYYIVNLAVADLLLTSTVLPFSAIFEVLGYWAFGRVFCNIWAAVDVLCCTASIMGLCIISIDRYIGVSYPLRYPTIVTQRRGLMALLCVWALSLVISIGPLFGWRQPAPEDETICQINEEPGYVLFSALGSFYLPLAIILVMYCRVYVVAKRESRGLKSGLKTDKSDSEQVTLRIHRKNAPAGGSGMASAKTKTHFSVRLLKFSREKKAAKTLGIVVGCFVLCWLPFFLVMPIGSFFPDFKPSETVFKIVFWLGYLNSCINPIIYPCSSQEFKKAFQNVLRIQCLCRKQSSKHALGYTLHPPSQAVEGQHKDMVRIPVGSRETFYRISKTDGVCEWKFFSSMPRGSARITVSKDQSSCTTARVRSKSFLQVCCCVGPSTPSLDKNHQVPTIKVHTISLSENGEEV

[8] = biological target: T5, Muscarinic acetylcholine receptor M1 (Homo sapiens, UniProt P11229); format: functional, cell-based
T5 sequence (P11229 whole entry): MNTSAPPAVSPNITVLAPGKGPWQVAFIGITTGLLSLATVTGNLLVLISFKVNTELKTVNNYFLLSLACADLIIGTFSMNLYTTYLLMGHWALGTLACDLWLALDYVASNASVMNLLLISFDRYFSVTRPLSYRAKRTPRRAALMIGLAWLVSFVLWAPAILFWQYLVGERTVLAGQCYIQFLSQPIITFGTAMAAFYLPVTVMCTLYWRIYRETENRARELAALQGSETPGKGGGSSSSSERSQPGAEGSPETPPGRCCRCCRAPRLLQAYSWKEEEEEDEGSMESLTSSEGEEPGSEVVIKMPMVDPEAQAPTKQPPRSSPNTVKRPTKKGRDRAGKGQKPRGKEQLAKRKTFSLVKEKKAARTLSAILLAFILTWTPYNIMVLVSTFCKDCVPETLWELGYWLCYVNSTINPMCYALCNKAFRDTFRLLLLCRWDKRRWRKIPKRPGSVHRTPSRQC

[9] = biological target: Prostaglandin G/H synthase 1 (Homo sapiens, UniProt P23219); format: functional
[10] = biological target: T4, Alpha-1A adrenergic receptor; format: functional, cell-based; remark: listed apart in the source
[11] = biological target: Gamma-aminobutyric acid receptor subunit alpha-1 (Rattus norvegicus, UniProt P62813)
Also: assay procedure not described here.

Chain of Adenosine receptor A2a (P29274 whole entry): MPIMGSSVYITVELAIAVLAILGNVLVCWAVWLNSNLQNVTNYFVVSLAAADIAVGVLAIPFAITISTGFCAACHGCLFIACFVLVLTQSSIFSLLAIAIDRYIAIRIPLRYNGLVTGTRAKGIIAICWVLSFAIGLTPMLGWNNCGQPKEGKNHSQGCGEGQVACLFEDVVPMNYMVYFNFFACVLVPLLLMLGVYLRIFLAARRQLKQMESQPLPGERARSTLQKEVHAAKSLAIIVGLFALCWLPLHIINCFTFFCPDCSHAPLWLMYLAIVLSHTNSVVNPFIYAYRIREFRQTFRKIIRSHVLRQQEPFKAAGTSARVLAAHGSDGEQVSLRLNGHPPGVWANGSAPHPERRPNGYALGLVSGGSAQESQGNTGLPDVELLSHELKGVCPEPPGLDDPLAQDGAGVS
Chain of Mu-type opioid receptor (P35372 whole entry): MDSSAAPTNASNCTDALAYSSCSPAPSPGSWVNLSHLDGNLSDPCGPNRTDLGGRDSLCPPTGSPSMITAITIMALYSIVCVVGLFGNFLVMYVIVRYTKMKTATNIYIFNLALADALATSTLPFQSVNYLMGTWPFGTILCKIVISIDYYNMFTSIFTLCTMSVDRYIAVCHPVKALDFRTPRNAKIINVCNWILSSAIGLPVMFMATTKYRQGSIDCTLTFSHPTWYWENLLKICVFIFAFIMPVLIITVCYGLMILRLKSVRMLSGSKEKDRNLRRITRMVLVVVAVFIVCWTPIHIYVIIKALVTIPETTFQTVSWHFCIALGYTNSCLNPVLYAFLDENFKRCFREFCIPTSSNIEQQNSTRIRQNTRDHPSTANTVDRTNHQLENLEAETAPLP
Chain of 3',5'-cyclic-AMP phosphodiesterase 4D (Q08499 whole entry): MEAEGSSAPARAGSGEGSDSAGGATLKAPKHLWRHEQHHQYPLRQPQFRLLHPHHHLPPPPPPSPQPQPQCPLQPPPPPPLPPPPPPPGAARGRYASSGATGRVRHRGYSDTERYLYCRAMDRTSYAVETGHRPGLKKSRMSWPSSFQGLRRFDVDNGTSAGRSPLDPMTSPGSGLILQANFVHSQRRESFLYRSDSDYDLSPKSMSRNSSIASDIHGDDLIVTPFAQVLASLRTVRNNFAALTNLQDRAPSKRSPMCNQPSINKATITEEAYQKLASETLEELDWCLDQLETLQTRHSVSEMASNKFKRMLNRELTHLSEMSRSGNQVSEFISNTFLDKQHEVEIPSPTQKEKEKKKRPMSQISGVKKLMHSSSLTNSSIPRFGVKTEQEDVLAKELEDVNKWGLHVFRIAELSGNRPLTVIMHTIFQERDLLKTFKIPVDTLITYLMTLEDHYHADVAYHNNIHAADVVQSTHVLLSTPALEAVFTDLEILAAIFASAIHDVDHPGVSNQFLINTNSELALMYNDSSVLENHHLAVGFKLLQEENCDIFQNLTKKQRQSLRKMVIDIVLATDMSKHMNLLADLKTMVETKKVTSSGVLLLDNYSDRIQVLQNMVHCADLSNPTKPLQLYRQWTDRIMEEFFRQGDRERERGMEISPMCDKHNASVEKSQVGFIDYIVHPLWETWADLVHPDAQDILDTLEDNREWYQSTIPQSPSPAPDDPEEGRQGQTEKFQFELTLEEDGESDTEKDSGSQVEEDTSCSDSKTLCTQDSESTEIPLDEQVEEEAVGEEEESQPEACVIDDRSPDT
Chain of 5-hydroxytryptamine receptor 2B (P41595 whole entry): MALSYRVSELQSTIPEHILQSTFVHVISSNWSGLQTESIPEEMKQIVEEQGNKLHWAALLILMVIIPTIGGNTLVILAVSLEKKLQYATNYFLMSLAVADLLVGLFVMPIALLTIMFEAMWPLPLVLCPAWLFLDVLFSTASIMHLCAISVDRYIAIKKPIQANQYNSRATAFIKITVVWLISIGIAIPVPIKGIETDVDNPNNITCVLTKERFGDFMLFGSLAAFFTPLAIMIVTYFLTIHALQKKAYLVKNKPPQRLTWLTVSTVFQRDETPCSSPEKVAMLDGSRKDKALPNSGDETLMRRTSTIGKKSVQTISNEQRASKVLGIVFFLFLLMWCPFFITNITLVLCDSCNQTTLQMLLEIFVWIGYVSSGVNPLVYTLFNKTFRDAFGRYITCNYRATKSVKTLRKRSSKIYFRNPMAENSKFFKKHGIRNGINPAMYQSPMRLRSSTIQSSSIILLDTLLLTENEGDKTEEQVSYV
Chain of Gamma-aminobutyric acid receptor subunit alpha-1 (P62813 whole entry): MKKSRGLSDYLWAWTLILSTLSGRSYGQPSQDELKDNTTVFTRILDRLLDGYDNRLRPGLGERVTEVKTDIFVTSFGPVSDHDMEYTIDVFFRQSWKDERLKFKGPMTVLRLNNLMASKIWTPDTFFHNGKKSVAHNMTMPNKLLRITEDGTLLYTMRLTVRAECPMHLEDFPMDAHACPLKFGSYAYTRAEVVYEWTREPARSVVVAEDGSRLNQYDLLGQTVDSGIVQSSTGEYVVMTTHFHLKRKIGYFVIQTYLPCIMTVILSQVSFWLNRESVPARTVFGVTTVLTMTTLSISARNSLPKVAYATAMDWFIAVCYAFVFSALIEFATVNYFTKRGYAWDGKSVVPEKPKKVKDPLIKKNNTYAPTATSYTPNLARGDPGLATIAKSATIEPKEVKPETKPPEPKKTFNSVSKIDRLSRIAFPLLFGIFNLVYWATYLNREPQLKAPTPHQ
Chain of Prostaglandin G/H synthase 1 (P23219 whole entry): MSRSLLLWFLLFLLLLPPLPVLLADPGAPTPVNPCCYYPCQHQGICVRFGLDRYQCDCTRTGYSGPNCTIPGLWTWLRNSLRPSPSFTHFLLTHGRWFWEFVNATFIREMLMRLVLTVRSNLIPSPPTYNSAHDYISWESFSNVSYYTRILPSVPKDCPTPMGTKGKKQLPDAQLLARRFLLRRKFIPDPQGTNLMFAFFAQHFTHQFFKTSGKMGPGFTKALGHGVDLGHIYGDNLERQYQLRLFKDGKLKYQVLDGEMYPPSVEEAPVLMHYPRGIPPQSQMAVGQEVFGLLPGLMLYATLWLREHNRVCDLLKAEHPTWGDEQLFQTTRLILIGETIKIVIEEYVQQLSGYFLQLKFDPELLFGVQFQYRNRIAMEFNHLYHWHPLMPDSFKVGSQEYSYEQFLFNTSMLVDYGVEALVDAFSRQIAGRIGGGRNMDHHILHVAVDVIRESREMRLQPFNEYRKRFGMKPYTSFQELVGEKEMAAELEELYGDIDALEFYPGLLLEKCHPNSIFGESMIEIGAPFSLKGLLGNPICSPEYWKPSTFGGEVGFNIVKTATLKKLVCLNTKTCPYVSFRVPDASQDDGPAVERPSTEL
Chain of Delta-type opioid receptor (P41143 whole entry): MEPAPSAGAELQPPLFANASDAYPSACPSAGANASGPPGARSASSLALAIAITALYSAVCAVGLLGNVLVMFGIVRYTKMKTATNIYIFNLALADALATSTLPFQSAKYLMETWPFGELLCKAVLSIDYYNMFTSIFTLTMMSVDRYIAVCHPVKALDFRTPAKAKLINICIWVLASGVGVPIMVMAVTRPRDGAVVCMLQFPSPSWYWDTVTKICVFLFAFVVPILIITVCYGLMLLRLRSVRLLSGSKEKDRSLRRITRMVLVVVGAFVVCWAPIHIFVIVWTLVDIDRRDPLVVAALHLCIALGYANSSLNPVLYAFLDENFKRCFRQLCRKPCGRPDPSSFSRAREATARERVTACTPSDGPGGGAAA

| Compound | AC50 [1] | AC50 [2] | AC50 [3] | AC50 [4] | AC50 [5] | AC50 (Adenosine receptor A2a) | AC50 (Mu-type opioid receptor) | AC50 [6] | AC50 [7] | AC50 [8] | AC50 [9] | AC50 [10] | AC50 [11] |
| --- | --- | --- | --- | --- | --- | --- | --- | --- | --- | --- | --- | --- | --- |
| C[N+]1(C)CCC(=C(c2ccccc2)c2ccccc2)CC1 | > 30 µM | > 30 µM | 29 µM | > 30 µM | > 30 µM | > 30 µM | > 30 µM | > 10 µM |  |  |  |  |  |
| Cc1ccccc1-n1c(CF)nc2ccc(N)cc2c1=O [AFLOQUALONE] | > 30 µM | > 30 µM | > 10 µM | > 30 µM | 13 µM | > 30 µM | > 30 µM | > 10 µM |  |  |  |  |  |
| CCC1(c2ccc(N)cc2)CCC(=O)NC1=O (stereo not drawn) [AMINOGLUTETHIMIDE] | > 30 µM | > 30 µM |  | > 30 µM | 9.5 µM | > 30 µM | > 30 µM | > 30 µM |  |  |  |  |  |
| NC(=O)[C@@H]1CC[C@@H]2CN1C(=O)N2OS(=O)(=O)O [AVIBACTAM] |  |  |  |  |  |  |  |  | > 30 µM | > 30 µM | > 30 µM | > 30 µM |  |
| CC(=O)OC[C@H]1O[C@@H](n2ncc(=O)[nH]c2=O)[C@H](OC(C)=O)[C@@H]1OC(C)=O [AZARIBINE] |  |  |  |  |  |  |  |  | > 30 µM |  | > 30 µM | > 30 µM | > 30 µM |
| CC(Cc1cccc(C(F)(F)F)c1)NCCOC(=O)c1ccccc1 (stereo not drawn) [BENFLUOREX] | > 30 µM | > 30 µM | 0.495 µM | > 30 µM |  | > 30 µM | 17 µM | 4.3 µM |  |  |  |  |  |
| NC[C@H]1CC[C@H](C(=O)Oc2ccc(CCC(=O)O)cc2)CC1 [CETRAXATE] |  |  | > 30 µM | > 30 µM | > 30 µM |  |  | > 30 µM |  |  | > 30 µM |  | > 30 µM |
| Cc1ncc2c(c1O)COC2c1ccc(Cl)cc1 (stereo not drawn) [CICLETANINE] |  |  |  |  |  |  |  |  | > 30 µM | > 30 µM | > 30 µM | > 30 µM |  |
| CC(=O)O[C@H]1Cc2ccccc2N(C(N)=O)c2ccccc21 [ESLICARBAZEPINE ACETATE] |  |  |  |  |  |  |  |  | > 30 µM | > 30 µM | > 30 µM | > 30 µM |  |
| CC(O)(P(=O)(O)O)P(=O)(O)O [ETIDRONIC ACID] |  |  |  |  |  |  |  |  | > 30 µM |  | > 30 µM | > 30 µM | > 30 µM |
| CN(C)CCCN1c2ccccc2CCc2ccccc21 [IMIPRAMINE] | > 30 µM | > 30 µM | 5 µM | > 10 µM | > 10 µM | > 30 µM | 8.1 µM | > 10 µM |  |  |  |  |  |
| C=C1c2cccc(O)c2C(=O)C2=C(O)[C@]3(O)C(=O)C(C(N)=O)=C(O)[C@@H](N(C)C)[C@@H]3[C@@H](O)[C@H]12 [METHACYCLINE] | > 30 µM | > 30 µM | > 10 µM | > 30 µM | > 30 µM | > 30 µM | > 30 µM | > 10 µM |  |  |  |  |  |
| CN(Cc1cnc2nc(N)nc(N)c2n1)c1ccc(C(=O)N[C@@H](CCC(=O)O)C(=O)O)cc1 [METHOTREXATE] | > 30 µM | > 30 µM | > 10 µM | > 30 µM | > 30 µM | > 30 µM | > 30 µM | > 10 µM |  |  |  |  |  |
| COc1ccc(OC)c(C(O)C(C)N)c1 (stereo not drawn) [METHOXAMINE] |  |  |  |  |  |  |  |  | 0.021 µM | > 30 µM | > 30 µM |  |  |
| CC1(CCN2CCCCC2)C(=O)CCc2ccccc21 (stereo not drawn) [NEPINALONE] |  |  |  |  |  |  |  |  | > 30 µM | > 30 µM | > 30 µM | > 30 µM |  |
| COc1cccc(C(=O)CCN[C@@H](C)[C@H](O)c2ccccc2)c1 [OXYFEDRINE] |  |  |  |  |  |  |  |  | > 30 µM | > 30 µM | > 30 µM | 0.205 µM |  |
| CC[N+](C)(CC)CCOC(=O)C(O)(c1ccccc1)C1CCCCC1 (stereo not drawn) [OXYPHENONIUM] |  |  |  |  |  |  |  |  | > 30 µM | > 30 µM | > 30 µM | > 30 µM |  |
| NNCCc1ccccc1 [PHENELZINE] |  |  |  |  |  |  |  |  | 11.5 µM |  | 0.5 µM | > 1 µM | > 30 µM |
| O=C1c2ccccc2C(=O)C1c1ccccc1 [PHENINDIONE] | > 10 µM |  | 18 µM | > 30 µM | > 30 µM | > 10 µM | > 30 µM | > 30 µM |  |  |  |  |  |
| CN[C@@H](C)[C@@H](O)c1ccccc1 [PSEUDOEPHEDRINE] | > 30 µM | > 30 µM | > 10 µM | > 30 µM | > 30 µM | > 30 µM | > 30 µM | > 10 µM |  |  |  |  |  |
| COC(=O)[C@H]1[C@H]2C[C@@H]3c4[nH]c5cc(OC)ccc5c4CCN3C[C@H]2C[C@@H](OC(=O)c2cc(OC)c(OC)c(OC)c2)[C@@H]1OC [RESERPINE] | > 10 µM |  | > 10 µM | > 30 µM | > 30 µM | > 30 µM | > 30 µM | > 10 µM | > 30 µM |  | > 30 µM | > 30 µM |  |
| Clc1ccc(C(Cn2ccnc2)OCc2csc3c(Cl)cccc23)c(Cl)c1 (stereo not drawn) [SERTACONAZOLE] |  |  |  |  |  |  |  |  | 24.3 µM | > 30 µM | 5.34 µM |  |  |
| CC(OCCN1CCCCCC1)(c1ccccc1)c1ccc(Cl)cc1 (stereo not drawn) [SETASTINE] |  |  |  |  |  |  |  |  | 28.1 µM | > 30 µM | > 30 µM |  |  |
| O=S1(=O)CCN(CN2CCS(=O)(=O)NC2)CN1 [TAUROLIDINE] |  |  |  | > 30 µM | > 30 µM | > 30 µM |  | > 30 µM |  |  | > 30 µM |  | > 30 µM |
| C[C@]12C=CC(=O)C=C1CC[C@@H]1[C@@H]2CC[C@]2(C)OC(=O)CC[C@@H]12 [TESTOLACTONE] | > 10 µM |  | > 30 µM | > 30 µM | > 30 µM | > 10 µM | > 30 µM | > 30 µM |  |  |  |  |  |
| c1ccc2c(SC3=NCCN3)c[nH]c2c1 [TINAZOLINE] |  |  |  |  |  |  |  |  | 0.003 µM | > 30 µM | > 30 µM |  |  |
| COc1ccc2c(C(=S)N(C)CC(=O)O)cccc2c1C(F)(F)F [TOLRESTAT] |  |  |  |  |  |  |  |  |  |  | > 30 µM |  | > 30 µM |
